Measurements as given in article PMC3380012, “Wild-Type Phosphoribosylpyrophosphate Synthase (PRS) from Mycobacterium tuberculosis: A Bacterial Class II PRS?” (PLoS ONE, 2012).
“And” between values parts separate entries of the source, which are not always exact repeats. Identical values can stand only once. “Also recorded” adds a separate entry of the source. Like-named read-outs stand apart in the source and are kept apart here.

Tests used:
MtPRS [1] = target: T1, MtPRS (Mycobacterium tuberculosis, UniProt P9WKE3); assay: Intrinsic tryptophan fluorescence (ITF) titration, binary complex formation at equilibrium; format: binding; settings: for Kd: Tris HCl 50 mM pH 7.5, MgCl2 20 mM, read-out: KD (hyperbolic binding to free MtPRS); for change in intrinsic protein fluorescence upon titration of free MtPRS: absence of second substrate
Experimental: Intrinsic tryptophan fluorescence titration was carried out to assess binary complex formation at equilibrium between MtPRS and either substrate(s) or product(s) at 25°C [43]. […] Fluorescence titrations were performed by making microliter additions of substrates and products at varying stock concentrations to 1 mL of MtPRS 3 µM, with a maximum dilution of 6%. […] After each ligand titration, the mixture was stirred for 3 minutes to ensure equilibrium binding prior to ITF measurements. […] Control experiments were performed in the same conditions in the absence of MtPRS to verify any inner filter effect, and the values found in the control experiments were subtracted from those obtained in the presence of the enzyme. No corrections for effects of protein dilution on ITF upon addition of buffer A containing MgCl2 20 mM to MtPRS were necessary. Data from equilibrium fluorescence spectroscopy were fitted to Eq. (5) for hyperbolic binding isotherms, in which F is the observed fluorescence signal; F max is the maximal fluorescence intensity; and KD represents the dissociation constant for binding of substrate and/or product to MtPRS. Sigmoidal binding data were fitted Eq. (6), in which F is the observed fluorescence signal, F max is the maximal fluorescence intensity, n is the Hill coefficient, and K’ is a constant comprising interaction factors and the intrinsic dissociation constant. [drawing 5] (5) [drawing 6] (6)

MtPRS [2] = target: T1, MtPRS; assay: MtPRS inhibition assays (coupled assay, fixed R5P and ATP); format: biochemical
Experimental: (§1) All chemicals were purchased from Sigma Aldrich. All enzyme activity assays were performed in triplicate. MtPRS activity was measured by a coupled continuous spectrophotometric assay in quartz cuvettes using a UV-visible Shimadzu spectrophotometer UV2550 equipped with a temperature-controlled cuvette holder. […] Homogeneous recombinant MtOPRT was obtained as described elsewhere. […] The reaction mixture (500 µL) contained 1.8 U MtOPRT, 300 µM OA, 20 mM MgCl2, in Tris HCl 50 mM pH 8.0. Reaction was started by addition of MtPRS (0.24–1.2 µM). One unit of MtPRS is defined as the amount of enzyme necessary to convert 1 µmol of R5P to PRPP per min. Effect of Pi over MtPRS activity was assessed by varying Pi concentration (10–50 mM) in the reaction conditions described above.
All measurements were performed in triplicate. The concentration of inhibitor required to reduce the fractional enzyme activity to half of its initial value in the absence of inhibitor (IC50) was obtained from fitting the data to Eq. (4) for partial inhibition, in which y is the fractional activity of the enzyme in the presence of inhibitor at concentration [I]; y (max) is the maximum value of y observed at [I] = 0; and y min is the minimum limiting value of y at high inhibitor concentrations. [drawing 4] (4)

M. tuberculosis PRS [3] = settings: cited from earlier work; for IC50: read-out: IC50 (inhibition of MtPRS activity)
[4] = target: T2, MtOPRT (M. tuberculosis orotate phosphoribosyltransferase) (Mycobacterium tuberculosis, UniProt P9WHK9); assay: Control measurement of coupled enzyme MtOPRT activity in presence of donors and inhibitors; format: biochemical; settings: compounds present in the assay mixtures of the coupled assays; data not shown
T2 construct: made in house
T2 sequence (P9WHK9 whole entry): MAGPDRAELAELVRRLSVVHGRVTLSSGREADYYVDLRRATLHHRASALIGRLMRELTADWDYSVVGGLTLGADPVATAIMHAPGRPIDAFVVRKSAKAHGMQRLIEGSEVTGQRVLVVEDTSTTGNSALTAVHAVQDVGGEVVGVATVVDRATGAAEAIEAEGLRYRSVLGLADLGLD
Experimental: as §1
Accordingly, the effects of the alternative diphosphoryl group donors, or nucleoside 5′-diphosphate or monophosphate inhibitors, were solely due to changes in MtPRS enzyme activity.

M. tuberculosis PRS [5] = settings: ref Alderwick, et al. 2011 [30], cited from earlier work
[6] = target: T3, MtPRS (Mycobacterium tuberculosis phosphoribosylpyrophosphate synthase) (Mycobacterium tuberculosis, UniProt P9WKE3); settings: diphosphoryl donor varied, R5P fixed at 60 µM, 25°C
S. typhimurium PRS = test system: S. typhimurium PRS; set-up: method as in PMID 211378; settings: cited from earlier work
[7] = test system: O=c1ccn([C@@H]2O[C@H](COP(=O)(O)OP(=O)(O)OP(=O)(O)O)[C@@H](O)[C@H]2O)c(=O)[nH]1; assay: purified protein, by the assay type; settings: pH 8.0
[8] = test system: Nc1nc2c(ncn2[C@@H]2O[C@H](COP(=O)(O)OP(=O)(O)OP(=O)(O)O)[C@@H](O)[C@H]2O)c(=O)[nH]1; assay: purified protein, by the assay type; settings: pH 8.0
[9] = test system: O=P(O)(O)OC[C@H]1O[C@H](O)[C@H](O)[C@@H]1O; assay: purified protein, by the assay type; settings: pH 8.0
[10] = target: T3, MtPRS (Mycobacterium tuberculosis phosphoribosylpyrophosphate synthase); assay: biochemical
[11] = target: the molecule itself; assay: cross-linking; glutaraldehyde vapour cross-linking, 0.3 mg/mL apo MtPRS in Tris HCl 50 mM pH 7.5, with or without Pi 50 mM, 30°C, different incubation times, 12% SDS-PAGE
[12] = target: the molecule itself; assay: cross-linking; glutaraldehyde vapour cross-linking, 0.3 mg/mL MtPRS in Tris HCl 50 mM pH 7.5 with R5P 5 mM, with or without Pi 50 mM, 30°C, 12% SDS-PAGE
[13] = target: the molecule itself; assay: cross-linking; glutaraldehyde vapour cross-linking, 0.3 mg/mL MtPRS in Tris HCl 50 mM pH 7.5 with ADP 5 mM, with or without Pi 50 mM, 30°C, 12% SDS-PAGE
[14] = target: the molecule itself; assay: cross-linking; glutaraldehyde vapour cross-linking, 0.3 mg/mL apo MtPRS in Tris HCl 50 mM pH 7.5, with or without Pi 50 mM, 30°C, different incubation times, 12% SDS-PAGE; remark: listed apart in the source
[15] = target: the molecule itself; assay: cross-linking; glutaraldehyde vapour cross-linking, 0.3 mg/mL MtPRS in Tris HCl 50 mM pH 7.5 with ATP 5 mM, with or without Pi 50 mM, 30°C, 12% SDS-PAGE
[16] = read-out: IC50 (partial inhibition of MtPRS activity)
[17] = 37°C, KH2PO4 50 mM pH 8.0, ref Lucarelli, et al. 2010 [31]
[18] = ref Lucarelli, et al. 2010 [31]

Nc1ncnc2c1ncn2[C@@H]1O[C@H](COP(=O)(O)O)[C@@H](O)[C@H]1O [AMP]
K' (sigmoidal binding, Hill equation) (MtPRS [1]; 25°C, MtPRS 3 µM, MgCl2 20 mM): 109 (±3) µM and 109 µM
Hill coefficient (MtPRS [1]; sigmoidal binding to free MtPRS): 3.2

Nc1nc2c(ncn2[C@@H]2O[C@H](COP(=O)(O)OP(=O)(O)O)[C@@H](O)[C@H]2O)c(=O)[nH]1 [GDP, guanosine 5′-diphosphate]
IC50 (MtPRS [2]; [16]): 900 µM
IC50 (M. tuberculosis PRS [3]; in the presence of Pi): > 5000 µM
effect on MtOPRT enzyme activity [4]: did not have any effect

Nc1ncnc2c1ncn2[C@@H]1O[C@H](COP(=O)(O)OP(=O)(O)OP(=O)(O)O)[C@@H](O)[C@H]1O [ATP, adenosine 5′-triphosphate]
Vmax (M. tuberculosis PRS [5]; 37°C, KH2PO4 50 mM pH 8.0): 601 µmol⁻¹ min⁻¹ mg⁻¹
S0.5 (M. tuberculosis PRS [5]): 62.65 µM
n (Hill coefficient) (M. tuberculosis PRS [5]): 1.68
kcat (M. tuberculosis PRS [3]; [17]): 34.6 (±3) s^−1
S0.5 (M. tuberculosis PRS [3]; [18]): 260 (±50) µM
n (Hill coefficient) (M. tuberculosis PRS [3]; [18]): 1
effect on MtOPRT enzyme activity [4]: did not have any effect
Kd (MtPRS [1]; 25°C, MtPRS 3 µM): 18 µM

Nc1ccn([C@@H]2O[C@H](COP(=O)(O)OP(=O)(O)OP(=O)(O)O)[C@@H](O)[C@H]2O)c(=O)n1 [CTP, cytosine 5′-triphosphate]
Vmax (apparent) ([6]; pH 8.0, no Pi): 0.111 (±0.003) µmol^−1 min^−1 mg^−1
kcat ([6]; pH 8.0, no Pi): 0.065 (±0.001) s^−1
Km ([6]; read-out: KM (apparent), Tris HCl 50 mM pH 8.0, MgCl2 20 mM, no Pi): 26 µM
activity as alternative substrate, of maximum reported activity using ATP as substrate (S. typhimurium PRS): 3%
effect on MtOPRT enzyme activity [4]: did not have any effect
change in intrinsic protein fluorescence upon titration of free MtPRS (MtPRS [1]; 25°C, MtPRS 3 µM): No change in protein fluorescence; also recorded: no change in IFT could be detected

O=c1[nH]cnc2c1ncn2[C@@H]1O[C@H](COP(=O)(O)OP(=O)(O)OP(=O)(O)O)[C@@H](O)[C@H]1O [ITP]
activity as alternative substrate, of maximum reported activity using ATP as substrate (S. typhimurium PRS): 3%

O=P(O)(O)OC[C@H]1O[C@H](OP(=O)(O)OP(=O)(O)O)[C@H](O)[C@@H]1O [PRPP, 5-phospho-α-D-ribose 1-diphosphate]
change in intrinsic protein fluorescence upon titration of free MtPRS (MtPRS [1]; 25°C, MtPRS 3 µM): no intrinsic protein fluorescence change; also recorded: No change in ITF could be detected

MtPRS (Mycobacterium tuberculosis phosphoribosylpyrophosphate synthase) (Mycobacterium tuberculosis H37Rv)
Km [7]: 52 (±7) µM
Vmax [7]: 0.264 µmol/min/mg
kcat [7]: 0.155 s⁻¹
kcat/Km [7]: 3000 M⁻¹ s⁻¹
Km [8]: 37 (±9) µM
Vmax [8]: 0.237 µmol/min/mg
kcat [8]: 0.14 ± 0.002 s⁻¹
kcat/Km [8]: 3800 ± 900 M⁻¹ s⁻¹
Km [9]: 14 (±2) µM
Vmax [9]: 1.41 µmol/min/mg
kcat [9]: 0.83 ± 0.04 s⁻¹
kcat/Km [9]: 59000 ± 8000 M⁻¹ s⁻¹

O=c1ccn([C@@H]2O[C@H](COP(=O)(O)OP(=O)(O)OP(=O)(O)O)[C@@H](O)[C@H]2O)c(=O)[nH]1 [UTP, uridine 5′-triphosphate]
activity as alternative substrate, of maximum reported activity using ATP as substrate (S. typhimurium PRS): 3%
effect on MtOPRT enzyme activity [4]: did not have any effect
change in intrinsic protein fluorescence upon titration of free MtPRS (MtPRS [1]; 25°C, MtPRS 3 µM): No change in protein fluorescence; also recorded: no change in IFT could be detected

Nc1nc2c(ncn2[C@@H]2O[C@H](COP(=O)(O)OP(=O)(O)OP(=O)(O)O)[C@@H](O)[C@H]2O)c(=O)[nH]1 [GTP, guanosine 5′-triphosphate]
activity as alternative substrate, of maximum reported activity using ATP as substrate (S. typhimurium PRS): 3%
effect on MtOPRT enzyme activity [4]: did not have any effect
Kd (MtPRS [1]; 25°C, MtPRS 3 µM): 21 µM

Nc1ncnc2c1ncn2[C@@H]1O[C@H](COP(=O)(O)OP(=O)(O)O)[C@@H](O)[C@H]1O [ADP, adenosine 5′-diphosphate]
IC50 (MtPRS [2]; [16]): 70 µM
IC50 (M. tuberculosis PRS [3]; saturating ATP and non-saturating Pi concentrations): 260 µM
IC50 (M. tuberculosis PRS [3]; saturating ATP and saturating Pi concentrations): 400 µM
effect on MtOPRT enzyme activity [4]: did not have any effect

O=P(O)(O)OC[C@H]1O[C@H](O)[C@H](O)[C@@H]1O [R5P, α-D-ribose 5-phosphate]
Ki [10]: 211 µM
Km (M. tuberculosis PRS [5]; 37°C, KH2PO4 50 mM pH 8.0): 8.2 µM
Vmax (M. tuberculosis PRS [5]; 37°C, KH2PO4 50 mM pH 8.0): 530 µmol⁻¹ min⁻¹ mg⁻¹
kcat (M. tuberculosis PRS [5]; 37°C, KH2PO4 50 mM pH 8.0): 60.68 s⁻¹
Km (M. tuberculosis PRS [3]; [17]): 71 µM
kcat (M. tuberculosis PRS [3]; [17]): 37.1 s⁻¹
Kd (MtPRS [1]; 25°C, MtPRS 3 µM): 61 µM

O=c1ccn([C@@H]2O[C@H](COP(=O)(O)O)[C@@H](O)[C@H]2O)c(=O)[nH]1 [UMP]
IC50 (MtPRS [2]; R5P 60 µM, ATP 300 µM fixed, 0.24 µM MtPRS, no Pi, fit to partial inhibition equation): 3000 µM
effect on MtOPRT enzyme activity [4]: did not have any effect

B1: Mycobacterium tuberculosis phosphoribosylpyrophosphate synthase (MtPRS) (enzyme)
chain: MSHDWTDNRKNLMLFAGRAHPELAEQVAKELDVHVTSQDAREFANGEIFVRFHESVRGCDAFVLQSCPAPVNRWLMEQLIMIDALKRGSAKRITAVMPFYPYARQDKKHRGREPISARLIADLLKTAGADRIVTVDLHTDQIQGFFDGPVDHMRGQNLLTGYIRDNYPDGNMVVVSPDSGRVRIAEKWADALGGVPLAFIHKTRDPRVPNQVVSNRVVGDVAGRTCVLIDDMIDTGGTIAGAVALLHNDGAGDVIIAATHGVLSDPAAQRLASCGAREVIVTNTLPIGEDKRFPQLTVLSIAPLLASTIRAVFENGSVTGLFDGDA
notes: also called prsA gene product; Rv1017c
stoichiometry N [11]: 6
stoichiometry N [12]: 6
stoichiometry N [13]: 4
stoichiometry N [14]: 3
stoichiometry N [15]: 2
